Measured values as given in ChEMBL document CHEMBL5625159, “Challenges for the development of mutant isocitrate dehydrogenases 1 inhibitors to treat glioma” (Eur J Med Chem, 2023).
Each block holds one compound with its values, some of them ahead of it.

What was measured:
[1] = molecular target: T1, Isocitrate dehydrogenase [NADP] cytoplasmic (Homo sapiens, UniProt O75874); assay: Inhibition of wild type IDH1 (unknown origin)
[2] = molecular target: T2, Isocitrate dehydrogenase [NADP] cytoplasmic (Homo sapiens, UniProt O75874, R132H); assay: Binding affinity to human recombinant IDH1 R132H mutant expressed in Escherichia coli BL21 (DE3) cells assessed as inhibition constant
T2 sequence (O75874 2-414 R132H limits assumed): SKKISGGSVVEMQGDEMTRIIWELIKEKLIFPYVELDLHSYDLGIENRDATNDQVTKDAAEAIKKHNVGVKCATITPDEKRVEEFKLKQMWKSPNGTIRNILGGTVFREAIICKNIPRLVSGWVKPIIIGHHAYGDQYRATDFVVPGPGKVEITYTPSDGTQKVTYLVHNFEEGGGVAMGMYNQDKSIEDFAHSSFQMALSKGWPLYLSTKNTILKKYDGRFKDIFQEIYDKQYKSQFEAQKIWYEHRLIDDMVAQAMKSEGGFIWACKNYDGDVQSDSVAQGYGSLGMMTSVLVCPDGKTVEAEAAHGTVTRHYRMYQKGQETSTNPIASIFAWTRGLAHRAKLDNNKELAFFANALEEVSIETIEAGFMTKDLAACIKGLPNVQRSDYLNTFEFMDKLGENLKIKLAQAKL

[3] = molecular target: T3, Isocitrate dehydrogenase [NADP] cytoplasmic (Homo sapiens, UniProt O75874, R132C); assay: Inhibition of human N-terminal 6His-tagged IDH1 R132C mutant expressed in Escherichia coli Rosetta2 (DE3) in presence of alpha-ketoglutarate and NADPH by fluorescence based biochemical assay
T3 sequence (O75874 2-414 R132C limits assumed): as the sequence (O75874 2-414 R132H limits assumed) above, with H131C counted along it

[4] = molecular target: T2, Isocitrate dehydrogenase [NADP] cytoplasmic; assay: Inhibition of wildtype human recombinant IDH1 R132H mutant heterodimer in presence of alpha-ketoglutarate and NADPH by fluorescence based biochemical assay
[5] = molecular target: T2, Isocitrate dehydrogenase [NADP] cytoplasmic; assay: Inhibition of human recombinant IDH1 R132H mutant expressed in Escherichia coli BL21 (DE3) cells in presence of alpha-ketoglutarate and NADPH by fluorescence based biochemical assay
[6] = molecular target: T1, Isocitrate dehydrogenase [NADP] cytoplasmic; assay: Inhibition of N-terminal His-tagged wild type IDH1 (unknown origin)
[7] = molecular target: T2, Isocitrate dehydrogenase [NADP] cytoplasmic; assay: Inhibition of IDH1 R132H mutant (unknown origin) expressed in HEK293T cells assessed as inhibition of 2-HG generation measured after 48 hrs by LC-MS/MS analysis; format: cell-based
[8] = molecular target: T3, Isocitrate dehydrogenase [NADP] cytoplasmic; assay: Inhibition of IDH1 R132C mutant (unknown origin) expressed in HEK293T cells assessed as inhibition of 2-HG generation measured after 48 hrs by LC-MS/MS analysis; format: cell-based
[9] = molecular target: T2, Isocitrate dehydrogenase [NADP] cytoplasmic; assay: Inhibition of N-terminal 6xHis-tagged IDH1 R132H mutant (unknown origin) expressed in Escherichia coli BL21 cells
[10] = molecular target: T3, Isocitrate dehydrogenase [NADP] cytoplasmic; assay: Inhibition of C-terminal Hexahistidine-tagged human recombinant IDH1 R132C mutant expressed in Escherichia coli BL21 (DE3) cells assessed as NADPH consumption in presence of alpha KG incubated for 1 hr by MST assay
[11] = molecular target: T2, Isocitrate dehydrogenase [NADP] cytoplasmic; assay: Inhibition of C-terminal Hexahistidine-tagged human recombinant IDH1 R132H mutant expressed in Escherichia coli BL21 (DE3) cells assessed as NADPH consumption in presence of alpha KG incubated for 1 hr by MST assay

T1 sequence (O75874 whole entry): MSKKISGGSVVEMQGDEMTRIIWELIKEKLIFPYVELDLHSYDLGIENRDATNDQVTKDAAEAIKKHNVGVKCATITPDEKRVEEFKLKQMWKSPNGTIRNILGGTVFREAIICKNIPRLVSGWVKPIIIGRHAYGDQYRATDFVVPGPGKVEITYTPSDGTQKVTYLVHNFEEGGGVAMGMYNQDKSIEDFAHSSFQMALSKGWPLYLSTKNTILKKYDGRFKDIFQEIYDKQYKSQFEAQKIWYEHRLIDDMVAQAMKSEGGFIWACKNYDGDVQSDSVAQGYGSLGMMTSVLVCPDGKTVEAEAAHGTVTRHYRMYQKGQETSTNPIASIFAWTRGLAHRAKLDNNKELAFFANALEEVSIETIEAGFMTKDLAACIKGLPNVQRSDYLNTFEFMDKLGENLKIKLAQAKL

Structure (SMILES): COc1c(C)cc(NC(=O)c2nn(Cc3ccc(F)cc3)c3c2CN(C(=O)c2ccc[nH]2)C[C@@H]3C(N)=O)cc1C
- IC50 [3]: 0.0088 µM
- IC50 [4]: 0.0166 µM
- IC50 [5]: 0.0152 µM
- IC50 [6]: 0.467 µM

Structure (SMILES): COC(=O)C1CCC2=C(C1=O)C(c1c[nH]c3ccccc13)Nc1ccccc1N2 (stereo unspecified)
- IC50 [7]: 55.5 µM
- IC50 [8]: 65.4 µM

Second part, the compound after the results:

- IC50 [1]: > 100 µM
- Ki [2]: 76.9 µM
Structure (SMILES): C=CC(C)(C)c1cc(/C=C/C(=O)c2ccc(O)cc2)c(OC)cc1O [LICOAGROCHACONE A]

- IC50 [9]: 0.677 µM
Structure (SMILES): CC(C)(O)CNc1nc(Nc2ccnc(C(F)(F)F)c2)nc(-c2cccc(C(F)(F)F)n2)n1 [ENASIDENIB]

- IC50 [10]: 42.3 µM
- IC50 [11]: 50.2 µM
Structure (SMILES): CCN(CC)CCOc1ccc(/C(=C(\Cl)c2ccccc2)c2ccccc2)cc1 [ZUCLOMIPHENE]
